Earlier results on 3 compounds are cited in patent US20140154783A1, “BIOPROCESSING” (priority 2009, published 2014).

The structures appear in SMILES notation.

Data set [1] relates to influenza A (avian plague virus). As to conditions: high concentrations; chick embryo fibroblasts infected with influenza A (avian plague virus); Klenk et al. 1972.
For the next data set, the target named is neuraminidase. The settings on record: influenza-infected MDCK cells; Barrere et al. 1997; read-out: Ki, reversible inhibition of neuraminidase.

On to `N[C@H]1C(O)O[C@H](CO)[C@@H](O)[C@@H]1O` (stereo partly drawn) [D-glucosamine], for which the “formation of hemagglutinin, neuraminidase, and mature virions” value in data set [1] is listed as “inhibited”.
With `COc1cc(C(F)F)ccc1OC1(C(=O)O)CC(O)C(NC(C)=O)C(C(O)C(O)CO)O1` (stereo not drawn) [4-difluoromethyl-2-methoxy-phenyl-α-ketoside of N-acetylneuraminic acid], the inhibition constant Ki at neuraminidase was 80 µM.
Take `O=CC[C@@H](O)[C@H](O)[C@H](O)CO` [2-deoxy-D-glucose]: the “formation of hemagglutinin, neuraminidase, and mature virions” value in data set [1] is reported as “inhibited”.
